Data taken from patent publication US9566264B2, “Combinations and methods” (Euthymics Bioscience, Inc., priority 2013, dated 2017).
Counter-ions that a name gives are not always drawn. Like-named read-outs stand apart in the source and are kept apart here.

Legend:
[1] = Flavin monooxygenase (FMO)-dependent lactam formation screening (pre-incubation temperature); assay type: in vitro ADME, human; conditions: for formation: area under the curve ratio of analyte to internal standard bicifadine-d5: 1 mM NADPH, mean ± SD; for formation after 37° C. pre-incubation versus 45° C. pre-incubation: 5 minute pre-incubation
Experimental: FMOs, but not CYP enzymes, are sensitive to elevated incubation temperature. Thus, to determine if the formation of the lactam metabolite is mediated by FMOs and/or CYPs, the effect of pre-incubation temperature on the lactam formation is conducted by XenoBiotic Laboratories, Inc. (Plainsboro, N.J.). […] The incubation of benzydamine (positive control, 200 μM) is carried out concurrently. The samples are analyzed using LC-MS/MS (see NADPH-dependent lactam formation methodology).

[2] = MAO phenotyping with MAO inhibitors in human liver mitochondria; assay type: in vitro ADME; conditions: 1 μM parent, 30 minutes at 37° C.
Experimental: A study on the role of monoamine oxidases involved in the formation of the lactam metabolite is conducted by XenoBiotic Laboratories, Inc. (Plainsboro, N.J.).

monoamine transporters = experiment: Affinity for monoamine transporters; assay type: binding
[3] = Brain and plasma levels of amitifadine and lactam metabolite Compound 2 in rat; assay type: in vivo; set-up: plasma level, mean±SEM: unit not given here; conditions: for plasma level, mean±SEM: amitifadine 10 mg/kg po
Experimental: The studies are conducted in accordance with the Institutional Animal Care and Use Committee guidelines. […] At 0.5, 1, 2, and 4 hour after dosage, animals are briefly anesthetized in a chamber containing 4% isoflurane and rapidly decapitated. Trunk blood is collected in heparinized tubes (9 units/ml whole blood), immediately chilled to 4° C., centrifuged, and the plasma is frozen at −80° C. until analyzed. Brains are quickly removed, bisected along the midline, and frozen at −80° C. until analyzed.
Plasma and brain samples are allowed to thaw on ice and are homogenized in a 20 ml glass vial in two volumes of ice cold water using a handheld homogenizer (VDI 12, VWR International). Standard curves are prepared in water, control plasma, and control brain homogenate. Equal volumes (100 μl) of plasma or brain homogenate samples, distilled water and internal standard are mixed in 1.5 ml polypropylene tubes and 300 μl of acetonitrile is added to each mixture. Samples are then mixed thoroughly by placing on a shaker at 200 RPM for 40 minutes at room temperature. The samples are then centrifuged at 10,000×g for 10 minutes at 4° C. and the supernatant (200 μl) is transferred to a tube containing 2 μl of 10% formic acid. The samples are subjected to a Zorbax SBC18 Solvent Saver Plus 3.0×150 mm 3.5-μm column on a Shimadzu Prominence LC. […] The concentration of compound in the column effluent is measured using an Applied Biosystems API-3200 triple quadrupole mass spectrometer.

[4] = NADPH-dependent lactam formation in human liver microsomes; assay type: in vitro ADME; conditions: for formation: area under the curve ratio of analyte to internal standard bicifadine-d5: 10 μM parent, 30 minutes, mean ± SD
Experimental: The effect of NADPH on lactam formation ((1S,5R)-5-(3,4-dichlorophenyl)-3-azabicyclo[3.1.0]hexan-2-one hydrochloride, Compound 2) is conducted by XenoBiotic Laboratories, Inc. (Plainsboro, N.J.). […] Bicifadine ((±)-1-(4-methylphenyl)-3-azabicyclo-[3.1.0]hexane HCl) (10 μM) is used as a positive control and the formation of the lactam metabolite of bicifadine (designated M12) is also monitored. Negative controls are determined by incubation of amitifadine and bicifadine in the absence of liver enzymes. The samples are analyzed using LC-MS/MS.
The system controller for the HPLC system is a Shimadzu SCL-10Avp, the pump model is a Shimadzu LC-10Avp, and the autosampler model is Shimadzu HTA. The analytical column is Phenomenex Luna C18 5 μm 50×2.0 mm which is set at room temperature and the autosampler is also at room temperature. The injection volume is 5 μl. Mobile phase A is 0.05% formic acid in water and mobile phase B is 0.05% formic acid in acetonitrile. The flow rate is 0.7 ml/minute and run time is 5 minutes. The mass spectrometer is an AB MDX Sciex API-4000 run in the turbo ion spray (ESI) positive ion detection mode and the scan mode is multiple reaction monitoring (MRM). The optimized mass spectrometry conditions are ion spray at 5000 V, curtain gas 10 units temperature 500° C., entrance potential 10 V, collision gas 6 units, and gas 1 and 2 each 50 units.

[5] = Human plasma protein binding (ultrafiltration); assay type: in vitro ADME
Experimental: Samples of test drug in triplicate are mixed and incubated in Millipore Multiscreen filter plates with Ultracel-10 regenerated cellulose membranes for 60 minutes at 37° C. Following incubation, samples undergo centrifugation for 60 minutes at 2000×g and the filtrate is collected. Percent protein bound is determined from the concentration of free compound present in the filtrate following comparison to a standard curve of test drug. […] The flow rate is 1 ml/min and the column temperature is maintained at 50° C. The solvent is a gradient of solvent A composed of 0.1% formic acid in water and solvent B composed of acetonitrile with 0.07% formic acid.

human hepatocytes [6] = experiment: In vitro metabolism in human hepatocytes; conditions: 100 μM, 4 hours incubation
Experimental: (§1) Cryopreserved human hepatocytes (male) that are prepared by XenoTech, LLC (Lenexa, Kans.), are thawed on the day of use and resuspended in Waymouth's incubation media. The enzymatic activity of hepatocytes is monitored using 7-ethoxycoumarin and 7-hydroxycoumarin as substrates. […] The incubations are carried out for 4 hours with 1×10^6 viable cells/ml. […] At 0 and 4 hour, cell suspensions are extracted using two volumes of ice cold methanol. After centrifugation, the extracts are stored at −20° C. until further sample processing. The solvent in the samples are dried under a stream of nitrogen, and resuspended in methanol:water (1:1) before analysis.
(§2) The extracts of the 4 hour incubation mixture are analyzed by liquid chromatography/electrospray ionization-mass spectrometry (LC/ESI-MS) in the positive and negative ion modes to screen for possible metabolites. […] The same instrumentation and methods in HPLC Method 1 are used in HPLC Method 2 with the exception that the mobile phases and gradient are 0.4% HCOOH in H2O for mobile A and CH3OH for mobile phase B. The mass spectrometer is LCQ™ Ion Trap Mass Spectrometer and is in either the positive or negative electrospray mode with the ion spray set at 4.5 kV. The capillary temperature is 250° C., the nitrogen sheath gas flow rate is ˜80 unit, the auxiliary nitrogen gas flow rate is 20 unit, and the collision gas is helium.

CYP2C19 = CYP2C19 (Homo sapiens, UniProt P33261); experiment: Inhibition of human CYP activity in microsomes: (S)-mephenytoin 4′-hydroxylation; conditions: pooled human liver microsomes, 10 to 30 min at 37° C.
human hepatocytes [7] = conditions: male, 4 h
Experimental: as §1, §2

CYP2B6 = biological target: T1, CYP2B6 (Homo sapiens, UniProt P20813); experiment: Inhibition of human CYP activity in microsomes: bupropion hydroxylation; conditions: pooled human liver microsomes, 10 to 30 min at 37° C.
T1 sequence (P20813 1-491): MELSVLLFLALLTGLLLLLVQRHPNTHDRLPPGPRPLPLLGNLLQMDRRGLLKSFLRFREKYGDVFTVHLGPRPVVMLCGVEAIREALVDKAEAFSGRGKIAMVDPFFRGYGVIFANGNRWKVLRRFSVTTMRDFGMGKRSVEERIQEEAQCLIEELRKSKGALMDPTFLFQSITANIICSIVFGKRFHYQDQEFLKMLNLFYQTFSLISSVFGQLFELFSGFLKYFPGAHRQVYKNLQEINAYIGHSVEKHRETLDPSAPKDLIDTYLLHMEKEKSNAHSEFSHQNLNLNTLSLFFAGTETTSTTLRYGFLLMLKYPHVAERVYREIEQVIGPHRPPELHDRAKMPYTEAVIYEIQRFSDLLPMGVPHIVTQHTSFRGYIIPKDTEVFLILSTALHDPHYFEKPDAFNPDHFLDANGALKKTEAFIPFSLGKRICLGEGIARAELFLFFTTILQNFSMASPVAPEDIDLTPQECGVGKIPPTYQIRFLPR

Caco-2 cells = experiment: Caco-2 bi-directional permeability assay; assay type: in vitro ADME, human
Experimental: Caco-2 cells are obtained from American Type Culture Collection (ATCC, Manassas, Va.) and are grown to confluence for 14-21 days on 1 μm filters in 24 well plates. […] Receiver solutions consist of buffer only. Sequential samples of transported solute are taken at 20 minute intervals in duplicate over 2 hours and the concentration of the transported compound is determined by HPLC-UV/MS. Test sample concentration is determined by LC/MS. Permeability coefficients are calculated for each sampling interval, and averages from the intervals are determined. The apparent permeability coefficient Papp is calculated from the equation
[formula] where dQ/dt is the rate of permeation of drug across the cells, C0 is the original concentration in donor compartment at time zero, and A is the area of the cell monolayer. Mass balance in the system is ascertained by comparing the sum of transported solute and remaining donor solute to the starting solution concentration.

[8] = microsomes pre-incubated at 37° C. for 5 minutes
[9] = microsomes pre-incubated at 45° C. for 5 minutes
[10] = male, Sprague-Dawley, brain/plasma, po, 10 mg/kg, read-out: brain to plasma ratio
[11] = human, Caco-2, 2 h, 10 μM, pH 7.4

CYP2C19, sequence (P33261 whole entry): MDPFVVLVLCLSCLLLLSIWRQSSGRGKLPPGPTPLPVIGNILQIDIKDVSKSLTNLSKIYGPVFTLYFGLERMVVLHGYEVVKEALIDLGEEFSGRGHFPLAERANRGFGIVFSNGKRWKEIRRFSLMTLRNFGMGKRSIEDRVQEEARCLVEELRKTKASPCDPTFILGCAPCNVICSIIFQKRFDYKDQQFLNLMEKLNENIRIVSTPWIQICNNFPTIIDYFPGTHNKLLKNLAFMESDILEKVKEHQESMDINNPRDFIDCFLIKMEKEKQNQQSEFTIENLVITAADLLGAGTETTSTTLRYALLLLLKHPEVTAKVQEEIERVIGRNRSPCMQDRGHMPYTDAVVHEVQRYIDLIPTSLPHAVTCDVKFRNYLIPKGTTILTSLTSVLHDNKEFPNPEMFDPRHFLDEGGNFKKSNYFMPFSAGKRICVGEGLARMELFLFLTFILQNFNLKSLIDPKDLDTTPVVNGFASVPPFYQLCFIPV

O=C1NC[C@]2(c3ccc(Cl)c(Cl)c3)C[C@H]12 [Compound 2, (1S,5R)-5-(3,4-dichlorophenyl)-3-azabicyclo[3.1.0]hexan-2-one hydrochloride]
formation: area under the curve ratio of analyte to internal standard bicifadine-d5 [1, 8]: 0.05 ± 0.01
formation: area under the curve ratio of analyte to internal standard bicifadine-d5 [1, 9]: 0.06 ± 0.01
formation after 37° C. pre-incubation versus 45° C. pre-incubation [1]: did not alter
effect of MAO-A inhibitor clorgyline on lactam formation [2]: concentration-dependently decreased
effect of MAO-B inhibitor selegiline on lactam formation [2]: did not have an effect
affinity for monoamine transporters (monoamine transporters): low affinity
plasma level, mean±SEM ([3]; 0.5 hours): 1153±610
plasma level, mean±SEM ([3]; 1 hour): 1620±303
plasma level, mean±SEM ([3]; 2 hours): 3831±1127
plasma level, mean±SEM ([3]; 4 hours): 8896±794
Kp at 0.5 h [3, 10]: 1.1
Kp at 1 h [3, 10]: 1.3
Kp at 2 h [3, 10]: 1.4
Kp at 4 h [3, 10]: 1.7
formation: area under the curve ratio of analyte to internal standard bicifadine-d5 ([4]; 0 mM NADPH at 37° C): 0.04 ± 0.00
formation: area under the curve ratio of analyte to internal standard bicifadine-d5 ([4]; 1 mM NADPH at 37° C.): 0.08 ± 0.01
quantity formed in presence of NADPH versus absence of NADPH ([4]; 1 mM vs 0 mM NADPH): 2 fold

C[N+](C)([O-])CCCOc1nn(Cc2ccccc2)c2ccccc12 [Benzydamine N-oxide, reference compound]
formation: area under the curve ratio of analyte to internal standard bicifadine-d5 [1, 8]: 35.70 ± 0.86
formation: area under the curve ratio of analyte to internal standard bicifadine-d5 [1, 9]: 7.68 ± 1.51
formation after 37° C. pre-incubation versus 45° C. pre-incubation [1]: 4.6 fold

Cn1c(=O)c2c(ncn2C)n(C)c1=O [Caffeine]
fraction unbound at 60 min, 1 μM ([5]; 1 μM, mean and SEM of triplicate, read-out: % Bound (converted)): 0.73
fraction unbound at 60 min, 10 μM ([5]; 10 μM, mean and SEM of triplicate, read-out: % Bound (converted)): 0.641
fraction unbound at 60 min ([5]; average of 1 and 10 μM): 0.685

O=c1ccc2ccc(O)cc2o1 [7-hydroxycoumarin]
metabolized after incubation (human hepatocytes [6]): 99.1%

CC[C@@]1(c2ccccc2)C(=O)NC(=O)N(Cc2ccccc2)C1=O [(R)-N-3-benzyl-Phenobarb-ital, (R)—N-3-benzylphenobarbital]
IC50 (CYP2C19): 300 nM

CCOc1ccc2ccc(=O)oc2c1 [7-ethoxycoumarin, reference compound]
metabolized after incubation (human hepatocytes [7]; 100 μM): 68.9%

CC(Nn1nnc2ccccc21)c1ccccc1 (stereo not drawn) [N-(α-methylbenzyl)-1-AB, N-(α-methylbenzyl)-1-aminobenzotriazole]
IC50 (CYP2B6): 60 nM

Lucifer yellow [reference compound]
transfer across Caco-2 monolayer (integrity) (Caco-2 cells; Caco-2): ≤ 0.05%

Clc1ccc([C@]23CNC[C@H]2C3)cc1Cl [Amitifadine, (1R,5S)-(+)-1-(3,4-dichlorophenyl)-3-azabicyclo[3.1.0]hexane hydrochloride]
Mass balance % AP→BL (Caco-2 cells; [11]): 62%
Mass balance % BL→AP (Caco-2 cells; [11]): 88%
parent remaining unchanged after incubation (human hepatocytes [7]; 87 μM): 82.4%
